Read-outs that look alike come from different tables or passages of the source. Starred links: 1 amine or outer side, 2 acyl side, 3 side chain; linkers in the order of their positions; H or OH if unused. Positions of bridges follow the written chain, without caps; N, C: chain ends. Non-standard residues stand in square brackets, D forms with d. Residues, ends and D or L forms follow the SMILES beside them. Chains are numbered I, II in the order given. Actinocin(9to1) = Cc1c2oc3c(C)ccc(C(=O)[*:1])c3nc-2c(C(=O)[*:2])c(N)c1=O; NMeV = CN[C@H](C(=O)O)C(C)C; Sar = CNCC(=O)O
Columns and labels:
[1] = tested on: Pol-I transcription (47/45S pre-rRNA) in HCT116 p53−/− cells; assay: 47/45S pre-rRNA level in cells by qPCR; format: cell-based, human; conditions: 30 min, CPT 8 µM, EB 40 µM, CV 20 µM, Pro 2 µM, CX5461 5 µM (Figure 5A)
Protocol: (§1) Cells were grown until 70% confluent and then treated with compounds for 30 min. The following concentrations were used: ActD: AD1–3 nM; AD2–3 µM; Camptothecin (CPT): 8 µM; ethidium bromide (EB): 40 µM; crystal violet (CV): 20 µM; Pro: 2 µM; CX5461: 5 µM. RNA was purified using the RNeasy purification kit (Qiagen) following the manufacturer’s instructions and the RNA concentration was determined spectroscopically. A total 1 µg of RNA was converted to cDNA using the High Capacity RNA-to-cDNA reverse transcriptase kit (Applied Biosystems, Waltham, MA, USA). Then 47/45S pre-rRNA levels were analyzed on the LighCycler 480 thermocycler (Roche) using primers and conditions described previously.
(§2) Pol-II and Pol-III transcripts were analyzed as described previously. All signals were normalized to 18S rRNA level. The standard deviation was calculated from three independent experiments.

[2] = tested on: Pol-I specific transcription (human rRNA gene promoter); assay: In vitro Pol-I specific (promoter-driven) transcription assay, HeLa nuclear extract, S1 nuclease protection; format: biochemical; conditions: 1 µL HeLa nuclear extract, 100 ng plasmid DNA containing rRNA promoter, triplicates
Protocol: […] Reactions were supplemented with 1 µL HeLa nuclear extract or with highly purified general transcription factors (GTF: 2 µL SL1, 2.5 µL Pol-I and 0.1 µL UBF). S1 nuclease protection was performed as described with a 60 bp ^32P-5′-end labelled oligonucleotide containing a sequence identical to the region between −20 and +40 of the template strand in the human rRNA gene promoter. […] The standard deviations were calculated from three independent experiments.
We tested a range of DNA intercalators and minor/major groove binders for the potential to inhibit Pol-I and determined IC50 for each drug using an in vitro Pol-I specific transcription assay. This assay primarily measures the efficiency of the initial stages of transcription which include preinitiation complex (PIC) formation, first phosphodiester bond synthesis and promoter clearance (see reviews and for a detailed description of the Pol-I transcription cycle). The reactions were supplemented with supercoiled rDNA template and HeLa nuclear extract (NE) and the level of specific transcript was determined by S1 nuclease protection assay as described.

[3] = tested on: Pol-I transcription (rRNA synthesis) in HCT116 p53−/− cells; assay: IC50 of Pol-I transcription (rRNA synthesis) in cells; format: cell-based, human; conditions: Homo sapiens
Protocol: as §1
Next, we determined IC50 concentrations for EtBr, Pro, CPT, DAPI and CV in cells by measuring the level of Pol-I transcription at various compound concentrations (Table 2). For this assay we used the HCT116 p53^−/− cell line to avoid any effect of p53 dependent repression of Pol-I transcription.

[4] = tested on: UBF occupancy at the rDNA, HCT116 p53−/− cells; assay: ChIP of the rDNA repeat: UBF occupancy; format: cell-based, human; conditions: 30 min at IC50 in cells: EB 9.16 µM; CV 5 µM; Pro 0.5 µM
Protocol: ChIP assays were carried out as described previously. In brief, cells were grown until 70% confluent, then treated with compounds for 30 min. The following concentrations were used: ethidium bromide (EB)—9.16 µM; crystal violet (CV)—5 µM; proflavine (Pro)—0.5 µM. Cells were cross-linked with formaldehyde (final concentration 1%) for 10 min, and the cross-linking stopped by the addition of glycine (final concentration 0.125 M) for 5 min. Cross-linked chromatin was sheared using a Biorupter (Diagenode, Liege, Belgium) until 300-base pair average size. Immunoprecipitation was carried out using chromatin isolated from 1 × 10^6 cells, antibodies listed in Supplementary Table S2 and 30 μL of Protein A/Protein G magnetic beads (Invitrogen). Purified immunoprecipitated DNA was analyzed by two tetraplex quantitative PCR panels designed for eight regions of the rDNA repeat; promoter, intergenic spacer 4 (IGS4), 18S, 5.8S, 28S, terminator, IGS1, and 5′externally transcribed spacer (ETS). […] Signal were quantified using internal standards and specific signals were calculated as a difference between the signals from the specific antibody and from the negative control (an appropriate IgG). Results were expressed as the amount relative to input chromatin and normalized to control IgG levels, with the standard deviations calculated from three independent ChIP experiments. […]

[5] = tested on: nascent RNA synthesis in HCT116 p53−/− cells; assay: Nascent RNA detection in cells by 5EU incorporation (click labelling, confocal microscopy); format: cell-based, human; conditions: 30 min treatment then 1 h 5EU
Protocol: Cells were grown until 50–60% confluent on sterilized glass slides (Superfrost® Plus microscope slides, Menzel-Glaser) and then were treated with compounds or vehicle (as indicated) for 30 min, followed by the addition of 5EU (5-Ethynyl-uridine, 1 mM final concentration) and further incubation for 1 h. The following concentrations were used: Actinomycin D (ActD): 3 µM; ethidium bromide (EB): 40 µM; proflavine (Pro): 2 µM; CX5461: 5 µM.
Cells were fixed with 3.7% paraformaldehyde and permeabilized with 0.5% Triton X-100 in PBS. Nascent RNA was fluorescently labelled using Click-IT® Cell Reaction Buffer Kit (Invitrogen, Waltham, MA, USA) supplemented with Cy5 Azide (Sigma Aldrich) according to manufacturer’s instruction. Nuclei were stained with Hoechst 33342 and images were acquired with a Leica TCS SP5 confocal microscope equipped with an x63 oil-filled objective. Leica Application Suite X (LAS X) software was used for quantification of 5EU incorporation. Box-and-whisker plots of quantification of 5EU incorporation were obtained with Excel. They show the median, the 25% and 75% quantiles, as well as outliers.
Although we see no significant effect of the intercalators and grove-binders on specific Pol-II transcription in vitro we performed experiments aiming to explore effect of these compounds on general level of Pol-II/III transcription in cells. To this end we used two approaches. Firstly, we measure the level of nascent RNA synthesis in […] p53^−/− cells treated with proflavine, ethidium bromide, CX-5461 (specific inhibitor of Pol-I transcription) at concentrations sufficient to inhibit about 90% of Pol-I transcription as shown in Figure 5A. As a control we used high concentration of ActD (3µM) that inhibits activity of all […] polymerases. Cells were treated with the selected compounds or a vehicle for 30 min and then 5EU (5-Ethynyl-uridine) was added and incubation was continued for another hour. During this time, 5EU is incorporated into any newly synthesized RNA, and the level of incorporation can later be assessed using a combination of “click” approach and confocal microscopy.

[6] = tested on: Pol-II transcription in HCT116 p53+/+ cells; assay: Pol-II transcripts (18 house-keeping genes) by qPCR in cells expressing wt p53; format: cell-based, human; conditions: cells expressing wt p53, 30 min; concentrations as Figure S2
Protocol: as §1, §2
(§3) As a complimentary approach we also measured the effect of intercalators and grove binders on transcription by Pol-II and Pol-III by determining relative expression levels of 18 house-keeping genes (the Human Housekeeper reference gene plate, Roche) and of three Pol-III dependent genes in intercalator treated and untreated HCT116 p53^−/− and p53^+/+ cells as described previously.
Figure S2. […] Total RNA was isolated, reverse transcribed and analysed by qPCR. […]

[7] = tested on: Pol II/III transcription in HCT116 p53−/− cells; assay: Pol-II (18 house-keeping genes) and Pol-III transcripts by qPCR in p53 null cells; format: cell-based, human; conditions: 30 min
Protocol: as §1, §2, §3

[8] = tested on: Pol-I specific transcription; assay: Pol-I specific transcription in vitro with or without Top 1 (purified GTFs or HeLa NE; immobilized linear or supercoiled template); format: biochemical, human; conditions: GTFs lacking Top 1 + immobilized linear template, HeLa NE + supercoiled plasmid
Protocol: Specific Pol I driven transcription reactions were performed as described using 200 ng of supercoiled plasmid DNA or immobilized rDNA promoter. Reactions were supplemented with 1 µL HeLa nuclear extract or with highly purified general transcription factors (GTF: 2 µL SL1, 2.5 µL Pol-I and 0.1 µL UBF). S1 nuclease protection was performed as described with a 60 bp ^32P-5′-end labelled oligonucleotide containing a sequence identical to the region between −20 and +40 of the template strand in the human rRNA gene promoter. […] The standard deviations were calculated from three independent experiments.

## Nc1ccc2cc3ccc(N)cc3nc2c1 [Proflavine, proflavine]
[1]
  inhibition of Pol-I transcription: about 90%
[2]
  IC50: 350 nM
[3]; HCT-116, p53 null HCT116 cells, triplicates, total RNA analyzed by S1 nuclease protection assay, read-out: IC50 (rRNA Synthesis)
  IC50: 476 nM
[4]
  UBF occupancy: affected
[5]; EB 40 µM, Pro 2 µM, CX5461 5 µM
  distribution (nucleolar localization) of nascent RNAs: affected the distribution of nascent RNAs
[5]; HCT116 p53−/− cells, EB 40 µM, Pro 2 µM, CX5461 5 µM
  inhibition of all transcription (5EU incorporation), effect of ActD set to be 100% inhibition: 48%

## Cc1c2oc3c(C)ccc(C(=O)N[C@@H]4C(=O)N[C@H](C(C)C)C(=O)N5CCC[C@H]5C(=O)N(C)CC(=O)N(C)[C@@H](C(C)C)C(=O)O[C@@H]4C)c3nc-2c(C(=O)N[C@@H]2C(=O)N[C@H](C(C)C)C(=O)N3CCC[C@H]3C(=O)N(C)CC(=O)N(C)[C@@H](C(C)C)C(=O)O[C@@H]2C)c(N)c1=O [ActD, Actinomycin D] (I: T[dV]P[Sar][NMeV] / II: T[dV]P[Sar][NMeV]; ester I:1-I:C, II:1-II:C; linker I:N-II:N via Actinocin(9to1))
[6]
  effect on mRNA levels of the genes tested: quite significant
[7]; AD1 3 nM ActD, CPT 8 µM, EB 40 µM, CV 20 µM, Pro 2 µM
  effect on Pol II/III transcription: did not repress
[7]; high concentration of ActD (AD2, 3 µM)
  transcription of Pol-II targets: causes repression of transcription of all Pol-II targets
[5]; 3 μM
  5EU incorporation (RNA synthesis): almost completely abolished

## CC[C@@]1(O)C(=O)OCc2c1cc1n(c2=O)Cc2cc3ccccc3nc2-1 [Camptothecin]
[8]
  effect on Pol-I specific transcription: represses Pol-I specific transcription under all conditions
[3]; HCT-116, read-out: IC50 (rRNA Synthesis)
  IC50: 1990 nM

Reference: paper PMC8466728, “DNA Intercalators Inhibit Eukaryotic Ribosomal RNA Synthesis by Impairing the Initiation of Transcription” (Genes, 2021)
